Consider 14 molecules from patent publication US10538555B2, “Macrocyclic inhibitors of the PD-1/PD-L1 and CD80(B7-1)/PD-L1 protein/protein interactions” (BRISTOL-MYERS SQUIBB COMPANY, priority 2014, dated 2020).

Structures are written as SMILES. Where a SMILES comes first, the peptide text is derived from it. Bridges are numbered along the chain shown (N, C = ends). [ ]: non-standard residue; d: D form. Trp(1-CH2COOH) = N[C@@H](Cc1cn(CC(=O)O)c2ccccc12)C(=O)O; Morpholine(3S-CO,6,6-Me2) = CC1(C)CN[C@H](C(=O)O)CO1; Trp(2-Me) = Cc1[nH]c2ccccc2c1C[C@H](N)C(=O)O; 1Nal = N[C@@H](Cc1cccc2ccccc12)C(=O)O; Pro(4R-Me) = C[C@H]1CN[C@H](C(=O)O)C1; Hyp = O=C(O)[C@@H]1C[C@@H](O)CN1; NMeNle = CCCC[C@H](NC)C(=O)O; Pip = O=C(O)[C@@H]1CCCCN1; dPip = O=C(O)[C@H]1CCCCN1; NMeA = CN[C@@H](C)C(=O)O; Dab = NCC[C@H](N)C(=O)O; Dap = NC[C@H](N)C(=O)O

The test deals with T1, Human PD-L1/PD-1 (Homo sapiens, UniProt Q9NZQ7).
T1 construct: TVMV protease cleavage site (C); made in house; host or cells: HEK293T cells
T1 sequence (Q9NZQ7 with tags, fused parts or gaps): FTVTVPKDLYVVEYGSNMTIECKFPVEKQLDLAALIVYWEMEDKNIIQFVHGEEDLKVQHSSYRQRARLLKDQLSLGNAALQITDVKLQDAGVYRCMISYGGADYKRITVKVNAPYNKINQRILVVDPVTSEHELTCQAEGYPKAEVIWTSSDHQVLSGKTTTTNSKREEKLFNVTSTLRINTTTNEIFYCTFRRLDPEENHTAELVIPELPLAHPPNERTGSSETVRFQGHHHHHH
Description: HTRF Human PD-L1/PD-1 binding assay (PD-1-Ig/PD-L1-His). The conditions noted are these: PD-L1-His 10 nM, PD-1-Ig 20 nM; class symbol; read-out: HTRF Human PD-L1/PD-1 Binding Assay IC50 Range. The method, boiled down:
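Competition of macrocyclic peptides for PD-1/PD-L1 binding measured by HTRF in dPBS containing 0.1% BSA and 0.05% Tween-20. Compound and PD-L1-His (10 nM final) incubated 15 min before PD-1-Ig (20 nM final) and a further 15 min.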
On the technique in general: In TR-FRET formats the signal depends on donor and acceptor labels being close together.

`CCCC[C@H]1C(=O)N(C)[C@@H](CCCC)C(=O)N[C@@H](C)C(=O)N[C@H](C(=O)NCC(N)=O)CSCC(=O)N[C@@H](Cc2ccc(O)cc2)C(=O)N2CC(C)(C)OC[C@H]2C(=O)N[C@@H](CC(N)=O)C(=O)N2CCC[C@H]2C(=O)N[C@@H](CN)C(=O)N[C@@H](CCC(N)=O)C(=O)N2C[C@H](O)C[C@H]2C(=O)N[C@@H](Cc2c[nH]c3ccccc23)C(=O)N[C@@H](CO)C(=O)N[C@@H](Cc2c[nH]c3ccccc23)C(=O)N1C` [Example 1281] ({CH2CO}-Y[Morpholine(3S-CO,6,6-Me2)]NP[Dap]Q[Hyp]WSW[NMeNle][NMeNle]ACG-NH2; thioether N-14): the IC50 fell in the range of 1 to 9.9 nM.

Take `CCCC[C@H]1C(=O)N(C)[C@@H](CCCC)C(=O)N[C@@H](CCC(=O)O)C(=O)N[C@H](C(=O)NCC(N)=O)CSCC(=O)N[C@@H](Cc2ccc(O)cc2)C(=O)N2C[C@H](O)C[C@H]2C(=O)N[C@@H](CC(N)=O)C(=O)N2CCC[C@H]2C(=O)N[C@@H](Cc2cnc[nH]2)C(=O)N[C@@H](CCC(=O)O)C(=O)N2C[C@H](O)C[C@H]2C(=O)N[C@@H](Cc2c[nH]c3ccccc23)C(=O)N[C@@H](CO)C(=O)N[C@@H](Cc2c[nH]c3ccccc23)C(=O)N1C` [Example 1283] ({CH2CO}-Y[Hyp]NPHE[Hyp]WSW[NMeNle][NMeNle]ECG-NH2; thioether N-14): the IC50 was in the range of 10 to 99.9 nM.

For the molecule `CCCC[C@H]1C(=O)N(C)[C@@H](CCCC)C(=O)N[C@@H](C)C(=O)N[C@H](C(=O)NCC(N)=O)CSCC(=O)N[C@@H](Cc2ccc(O)cc2)C(=O)N(C)[C@@H](C)C(=O)N[C@@H](CC(N)=O)C(=O)N2CCC[C@H]2C(=O)N[C@@H](Cc2cnc[nH]2)C(=O)N[C@@H](CCC(N)=O)C(=O)N2C[C@H](O)C[C@H]2C(=O)N[C@@H](Cc2c[nH]c3ccccc23)C(=O)N[C@@H](CO)C(=O)N[C@@H](Cc2c(C)[nH]c3ccccc23)C(=O)N1C` [Example 1285] ({CH2CO}-Y[NMeA]NPHQ[Hyp]WS[Trp(2-Me)][NMeNle][NMeNle]ACG-NH2; thioether N-14), the IC50 fell in the range of 1 to 9.9 nM.

For `CCCC[C@H]1C(=O)N(C)[C@@H](CCCC)C(=O)N[C@@H](C)C(=O)N[C@H](C(=O)NCC(N)=O)CSCC(=O)N[C@@H](Cc2ccc(O)cc2)C(=O)N(C)[C@@H](C)C(=O)N[C@@H](CC(N)=O)C(=O)N2CCC[C@H]2C(=O)N[C@@H](Cc2cnc[nH]2)C(=O)N[C@@H](CCC(N)=O)C(=O)N2C[C@H](O)C[C@H]2C(=O)N[C@@H](Cc2c[nH]c3ccccc23)C(=O)N[C@@H](CO)C(=O)N[C@@H](Cc2cccc3ccccc23)C(=O)N1C` [Example 1289] ({CH2CO}-Y[NMeA]NPHQ[Hyp]WS[1Nal][NMeNle][NMeNle]ACG-NH2; thioether N-14), the IC50 was in the range of 1 to 9.9 nM.

Turning to `CCCC[C@H]1C(=O)N(C)[C@@H](CCCC)C(=O)N[C@@H](CCC(=O)O)C(=O)N[C@H](C(=O)NCC(N)=O)CSCC(=O)N[C@@H](Cc2ccc(O)cc2)C(=O)N2CCCC[C@@H]2C(=O)N[C@@H](CC(N)=O)C(=O)N2CCC[C@H]2C(=O)N[C@@H](CN)C(=O)N[C@@H](CCC(=O)O)C(=O)N2C[C@H](O)C[C@H]2C(=O)N[C@@H](Cc2c[nH]c3ccccc23)C(=O)N[C@@H](CO)C(=O)N[C@@H](Cc2cn(CC(=O)O)c3ccccc23)C(=O)N1C` [Example 1290] ({CH2CO}-Y[dPip]NP[Dap]E[Hyp]WS[Trp(1-CH2COOH)][NMeNle][NMeNle]ECG-NH2; thioether N-14), the IC50 is 10 to 99.9 nM.

On to `CCCC[C@H]1C(=O)N(C)[C@@H](CCCC)C(=O)N[C@@H](CN)C(=O)N[C@H](C(=O)NCC(N)=O)CSCC(=O)N[C@@H](Cc2ccc(O)cc2)C(=O)N2CCCC[C@H]2C(=O)N[C@@H](CC(N)=O)C(=O)N2CCC[C@H]2C(=O)N[C@@H](CN)C(=O)N[C@@H](CC(C)C)C(=O)N2C[C@H](C)C[C@H]2C(=O)N[C@@H](Cc2c[nH]c3ccccc23)C(=O)N[C@@H](CCN)C(=O)N[C@@H](Cc2cn(CC(=O)O)c3ccccc23)C(=O)N1C` [Example 1291] ({CH2CO}-Y[Pip]NP[Dap]L[Pro(4R-Me)]W[Dab][Trp(1-CH2COOH)][NMeNle][NMeNle][Dap]CG-NH2; thioether N-14), for which the IC50 was in the range of 1 to 9.9 nM.

As for `CCCC[C@H]1C(=O)N(C)[C@@H](CCCC)C(=O)N[C@@H](C)C(=O)N[C@H](C(=O)NCC(N)=O)CSCC(=O)N[C@@H](Cc2ccc(O)cc2)C(=O)N2CCCC[C@H]2C(=O)N[C@@H](CC(=O)O)C(=O)N2CCC[C@H]2C(=O)N[C@@H](Cc2cnc[nH]2)C(=O)N[C@@H](CCC(N)=O)C(=O)N2C[C@H](O)C[C@H]2C(=O)N[C@@H](Cc2c[nH]c3ccccc23)C(=O)N[C@@H](CO)C(=O)N[C@@H](Cc2cn(CC(=O)O)c3ccccc23)C(=O)N1C` [Example 1292] ({CH2CO}-Y[Pip]DPHQ[Hyp]WS[Trp(1-CH2COOH)][NMeNle][NMeNle]ACG-NH2; thioether N-14), the IC50 was 10 to 99.9 nM.

Take `CCCC[C@H]1C(=O)N(C)[C@@H](CCCC)C(=O)N[C@@H](CC(C)C)C(=O)N[C@H](C(=O)NCC(N)=O)CSCC(=O)N[C@@H](Cc2ccc(O)cc2)C(=O)N2CCCC[C@H]2C(=O)N[C@@H](CC(=O)O)C(=O)N2CCC[C@H]2C(=O)N[C@@H](Cc2cnc[nH]2)C(=O)N[C@@H](CCC(N)=O)C(=O)N2C[C@H](O)C[C@H]2C(=O)N[C@@H](Cc2c[nH]c3ccccc23)C(=O)N[C@@H](CO)C(=O)N[C@@H](Cc2cn(CC(=O)O)c3ccccc23)C(=O)N1C` [Example 1293] ({CH2CO}-Y[Pip]DPHQ[Hyp]WS[Trp(1-CH2COOH)][NMeNle][NMeNle]LCG-NH2; thioether N-14): the IC50 is 10 to 99.9 nM.

Take `CCCC[C@H]1C(=O)N(C)[C@@H](CCCC)C(=O)N[C@@H](CCN)C(=O)N[C@H](C(=O)NCC(N)=O)CSCC(=O)N[C@@H](Cc2ccc(O)cc2)C(=O)N2CCCC[C@H]2C(=O)N[C@@H](CC(=O)O)C(=O)N2CCC[C@H]2C(=O)N[C@@H](Cc2cnc[nH]2)C(=O)N[C@@H](CCC(=O)O)C(=O)N2C[C@H](O)C[C@H]2C(=O)N[C@@H](Cc2c[nH]c3ccccc23)C(=O)N[C@@H](CO)C(=O)N[C@@H](Cc2cn(CC(=O)O)c3ccccc23)C(=O)N1C` [Example 1294] ({CH2CO}-Y[Pip]DPHE[Hyp]WS[Trp(1-CH2COOH)][NMeNle][NMeNle][Dab]CG-NH2; thioether N-14): the IC50 lay within 10 to 99.9 nM.

As for `CCCC[C@H]1C(=O)N(C)[C@@H](CCCC)C(=O)N[C@@H](CN)C(=O)N[C@H](C(=O)NCC(N)=O)CSCC(=O)N[C@@H](Cc2ccc(O)cc2)C(=O)N2CCCC[C@H]2C(=O)N[C@@H](CC(N)=O)C(=O)N2CCC[C@H]2C(=O)N[C@@H](CN)C(=O)N[C@@H](CCC(=O)O)C(=O)N2C[C@H](O)C[C@H]2C(=O)N[C@@H](Cc2c[nH]c3ccccc23)C(=O)N[C@@H](CCN)C(=O)N[C@@H](Cc2cn(CC(=O)O)c3ccccc23)C(=O)N1C` [Example 1295] ({CH2CO}-Y[Pip]NP[Dap]E[Hyp]W[Dab][Trp(1-CH2COOH)][NMeNle][NMeNle][Dap]CG-NH2; thioether N-14), the IC50 was in the range of 10 to 99.9 nM.

`CCCC[C@H]1C(=O)N(C)[C@@H](CCCC)C(=O)N[C@@H](CC(C)C)C(=O)N[C@H](C(=O)NCC(N)=O)CSCC(=O)N[C@@H](Cc2ccc(O)cc2)C(=O)N2CCCC[C@@H]2C(=O)N[C@@H](CC(=O)O)C(=O)N2CCC[C@H]2C(=O)N[C@@H](Cc2cnc[nH]2)C(=O)N[C@@H](CCCCN)C(=O)N2C[C@H](O)C[C@H]2C(=O)N[C@@H](Cc2c[nH]c3ccccc23)C(=O)N[C@@H](CCCCN)C(=O)N[C@@H](Cc2cn(CC(=O)O)c3ccccc23)C(=O)N1C` [Example 1296] ({CH2CO}-Y[dPip]DPHK[Hyp]WK[Trp(1-CH2COOH)][NMeNle][NMeNle]LCG-NH2; thioether N-14): the IC50 was 1 to 9.9 nM.

For the molecule `CCCC[C@H]1C(=O)N(C)[C@@H](CCCC)C(=O)N[C@@H](CC(C)C)C(=O)N[C@H](C(=O)NCC(N)=O)CSCC(=O)N[C@@H](Cc2ccc(O)cc2)C(=O)N2CCCC[C@H]2C(=O)N[C@@H](CC(N)=O)C(=O)N2CCC[C@H]2C(=O)N[C@@H](CN)C(=O)N[C@@H](CC(C)C)C(=O)N2C[C@H](O)C[C@H]2C(=O)N[C@@H](Cc2c[nH]c3ccccc23)C(=O)N[C@@H](CCN)C(=O)N[C@@H](Cc2cn(CC(=O)O)c3ccccc23)C(=O)N1C` [Example 1297] ({CH2CO}-Y[Pip]NP[Dap]L[Hyp]W[Dab][Trp(1-CH2COOH)][NMeNle][NMeNle]LCG-NH2; thioether N-14), the IC50 was in the range of 1 to 9.9 nM.

In the case of `CCCC[C@H]1C(=O)N(C)[C@@H](CCCC)C(=O)N[C@@H](CN)C(=O)N[C@H](C(=O)NCC(N)=O)CSCC(=O)N[C@@H](Cc2ccc(O)cc2)C(=O)N2CCCC[C@H]2C(=O)N[C@@H](CC(N)=O)C(=O)N2CCC[C@H]2C(=O)N[C@@H](Cc2cnc[nH]2)C(=O)N[C@@H](CCC(N)=O)C(=O)N2C[C@H](O)C[C@H]2C(=O)N[C@@H](Cc2c[nH]c3ccccc23)C(=O)N[C@@H](CCN)C(=O)N[C@@H](Cc2cn(CC(=O)O)c3ccccc23)C(=O)N1C` [Example 1298] ({CH2CO}-Y[Pip]NPHQ[Hyp]W[Dab][Trp(1-CH2COOH)][NMeNle][NMeNle][Dap]CG-NH2; thioether N-14), the IC50 is 1 to 9.9 nM.

Consider `CCCC[C@H]1C(=O)N(C)[C@@H](CCCC)C(=O)N[C@@H](CC(C)C)C(=O)N[C@H](C(=O)NCC(N)=O)CSCC(=O)N[C@@H](Cc2ccc(O)cc2)C(=O)N2CCCC[C@H]2C(=O)N[C@@H](CC(N)=O)C(=O)N2CCC[C@H]2C(=O)N[C@@H](CN)C(=O)N[C@@H](CCC(=O)O)C(=O)N2C[C@H](O)C[C@H]2C(=O)N[C@@H](Cc2c[nH]c3ccccc23)C(=O)N[C@@H](CCN)C(=O)N[C@@H](Cc2cn(CC(=O)O)c3ccccc23)C(=O)N1C` [Example 1299] ({CH2CO}-Y[Pip]NP[Dap]E[Hyp]W[Dab][Trp(1-CH2COOH)][NMeNle][NMeNle]LCG-NH2; thioether N-14), for which the IC50 was in the range of 1 to 9.9 nM.
